Measured values taken from patent US20100197717A1, “COMBINATION OF A 5HT7 RECEPTOR LIGAND AND AN OPIOID RECEPTOR LIGAND” (priority 2007, published 2010).
pIC50: −log10 of the molar value. Counter-ions that a name gives are not always drawn. Like-named read-outs stand apart in the source and are kept apart here.

How the values were obtained:
[1] = target: T1, Cloned Human Serotonin Receptor, Subtype 7 (h5HT7) (Homo sapiens, UniProt P34969); test: Radioligand binding 5HT7
T1 construct: purchased PerkinElmer 6120512; host or cells: CHO cells
Procedure: Radioligand binding assays were performed using the Cloned Human Serotonin Receptor, Subtype 7 (h5HT7), expressed in CHO cells, coated on Flashplate (Basic FlashPlate Cat.: SMP200) from PerkinElmer (Cat.: 6120512). The protocol assay was essentially the recommended protocol in the Technical Data Sheet by PerkinEmer Life and Analytical Sciences. The Mass membrane protein/well was typically 12 μg and the Receptor/well was about 9-10 fmoles. The Flashplate were let equilibrate at room temperature for one hour before the addition of the components of the assay mixture. The binding buffer was: 50 mM Tris-HCl, pH 7.4, containing 10 mM MgCl2, 0.5 mM EDTA and 0.5% BSA. The radioligand was [^125I]LSD at a final concentration of 0.82 nM. Nonspecific binding was determined with 50 μM of Clozapine. The assay volume was 25 μl. TopSeal-A were applied onto Flashplate microplates and they were incubated at room temperature for 240 minutes in darkness. The radioactivity were quantified by liquid scintillation spectrophotometry (Wallac 1450 Microbeta Trilux) with a count delay of 4 minutes prior to counting and a counting time of 30 seconds per well. Competition binding data were analyzed by using the LIGAND program (Munson and Rodbard, LIGAND: A versatile, computerized approach for characterization of ligand-binding systems. Anal. Biochem. 107: 220-239, 1980) and assays were performed in triplicate determinations for each point.

5HT7 receptor = 5HT7 receptor (Homo sapiens, UniProt P34969); conditions: statement in the definitions; cited from earlier work
Male CD1 mice [2] = test: Tail Flick Test; type: in vivo
Male CD1 mice [3] = conditions: day 5; morphine 4 mg/kg alone (vs Non-Tolerant) or + Chemical Example 1 10 mg/kg (vs morphine only); FIG. 12
Procedure: Briefly, the animals (male CD1 mice) were restrained in a Plexiglas tube and placed on the tail flick apparatus (LI 7100, Letica, S. A., Spain). A noxious beam of light was focussed on the tail, and the tail flick latency was recorded automatically to the nearest 0.1 s. The intensity of the radiant heat source was adjusted to yield baseline latencies between 2 and 3 s; this intensity was never changed and any animal whose baseline latency was outside the pre-established limits was excluded from the experiments. In order to minimise injury in the animals, a cut-off time of 10 s was used. The animals received an s.c. injection of the vehicle (saline), drug or drug combination under study, and tail flick latencies were measured and are measured at 45 min after drug or vehicle administration. Baseline tail flick latencies were recorded after saline/vehicle injection. By comparing to baseline (defined as 0% analgesia) and to a failure of pain reaction/tail flick (defined as 100% analgesia) Percentage of analgesia was determined.
Male CD1 Mice were divided in 2 groups, the group receiving s.c. injections of morphine in high doses to develop tolerance (hereinafter called Tolerants), and the group receiving only vehicle (called Non-Tolerants). […]
The mice were placed 45 minutes after injection in the tail-flick apparatus. The Baseline was determined based on saline injection. […]

Male CD1 mice [4] = conditions: day 5, morphine 4 mg/kg alone (vs Non-Tolerant) or + Chemical Example 1 10 mg/kg (vs morphine only)
Procedure: (§1) The mice were kept on the hot plate for no longer than 450 seconds in order to avoid the development of cutaneous lesions. The vehicle, the active substances and the inventive active substance combination to be tested were administered—sometimes in differing concentrations—by s.c. injection to different groups of mice. 0.5 hours after the administration the animals are put onto the hot plate and the time is measured until they show signs of pain, divided by Fore Paw Licking (FPL), Hind Paw Licking (HPL) and Jumping, to allow conclusions on differentiations of pain types through the different pain symptoms/signs of pain. The analgesic efficacy of the active substances or active substance combination is calculated on the basis of the values obtained for the comparison group of mice to which is only administered the vehicle (baseline). By comparing to baseline (defined as 0% analgesia) and to a failure of pain signs (defined as 100% analgesia) Percentage of analgesia was determined. In some cases based on this calculation and with different concentrations of the active substances or active substance combination ED50 values were determined.
Male CD1 Mice were divided in 2 groups, the group receiving s.c. injections of morphine in high doses to develop tolerance (hereinafter called Tolerants), and the group receiving only vehicle (called Non-Tolerants). The following treatment scheme was followed:
The mice were placed 30 minutes after injection on the hot plate heated to 50° C. The signs of pain shown were divided by Fore Paw Licking (FPL), Hind Paw Licking (HPL) and Jumping and measured/counted. The Baseline was determined based on saline injection. Significance values were determined vs. respective “non tolerant” group, the “Morphine-tolerant group” or the “Morphine-non tolerant group” with *** p<0.001 vs. respective “non tolerant” group, # # # p<0.001 vs. “Morphine-tolerant group” and α α α p<0.001 vs. “Morphine-non tolerant group” (Newman-Keuls Multiple Comparison Test post-ANOVA).

Male CD1 mice [5] = test: animal or person; conditions: Mus musculus, sc
Procedure: Male CD1 mice aged from 6 to 8 weeks old were used in these studies. Animals were housed in groups of five, provided with food and water ad libitum and kept in controlled laboratory conditions with the temperature maintained at 21±1° C. and light in 12 h cycles (on at 07:00 h and off at 19:00 h). Experiments were carried out in a soundproof and air-regulated experimental room. The number of mice ranged from 8 to 16 per group in each individual experiment.
All the compounds were dissolved in physiological saline and administered in a volume of 5 ml/kg of body weight through the subcutaneous (s.c.) route. When compounds were co-administered, they were injected s.c. opposite flanks of the mice. The doses of drugs refer to their salt forms.
The analgesic activity of the inventive active substance combination is determined in male CD1 following and adapting the description in the publication of G. Woolfe and A. D. MacDonald, J. Pharm.
as §1

5-HT6 = 5-HT6 (Homo sapiens, UniProt P50406); test: 5-HT6 inhibition; type: binding; conditions: 10^−7M; as dihydrochloride; read-out: 5-HT6 inhib. (10^−7M) (%)
[6] = read-out: 5-HT7 %-Inhib. (10^−6 M)
[7] = read-out: 5-HT7 %-Inhib. (10^−7 M)
[8] = read-out: 5-HT7 %-Inhib. (10^−8 M)

T1 sequence (P34969 whole entry): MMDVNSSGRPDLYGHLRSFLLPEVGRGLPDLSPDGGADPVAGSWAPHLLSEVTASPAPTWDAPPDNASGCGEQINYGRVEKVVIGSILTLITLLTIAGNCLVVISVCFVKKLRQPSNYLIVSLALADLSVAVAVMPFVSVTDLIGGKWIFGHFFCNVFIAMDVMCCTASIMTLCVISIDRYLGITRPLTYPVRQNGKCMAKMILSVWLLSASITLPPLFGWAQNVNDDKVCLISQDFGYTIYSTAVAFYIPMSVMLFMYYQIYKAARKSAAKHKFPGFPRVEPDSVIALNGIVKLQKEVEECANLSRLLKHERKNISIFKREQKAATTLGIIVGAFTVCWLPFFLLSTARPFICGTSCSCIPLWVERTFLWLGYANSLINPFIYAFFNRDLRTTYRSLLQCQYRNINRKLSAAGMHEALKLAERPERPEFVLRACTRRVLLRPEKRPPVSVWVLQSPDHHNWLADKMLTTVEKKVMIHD
Sequence of 5HT7 receptor (P34969 whole entry): as above
Sequence of 5-HT6 (P50406 whole entry, species assumed): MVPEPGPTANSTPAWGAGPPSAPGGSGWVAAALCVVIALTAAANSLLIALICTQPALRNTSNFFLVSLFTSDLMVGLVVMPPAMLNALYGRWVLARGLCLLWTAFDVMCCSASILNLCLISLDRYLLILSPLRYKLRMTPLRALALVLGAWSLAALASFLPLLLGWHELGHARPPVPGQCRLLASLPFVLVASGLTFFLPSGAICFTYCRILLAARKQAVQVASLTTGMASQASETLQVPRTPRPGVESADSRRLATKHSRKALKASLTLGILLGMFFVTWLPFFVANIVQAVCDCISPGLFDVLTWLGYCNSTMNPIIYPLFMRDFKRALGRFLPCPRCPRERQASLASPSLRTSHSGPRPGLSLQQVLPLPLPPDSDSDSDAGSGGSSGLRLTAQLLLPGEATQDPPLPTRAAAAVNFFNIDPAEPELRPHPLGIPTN

Structure (SMILES)	inhibition at 1 µM ([1]; read-out: % Inh (10^−6 M)) [%]	inhibition at 0.1 µM ([1]; read-out: % Inh (10^−7 M)) [%]	inhibition at 0.01 µM ([1]; read-out: % Inh (10^−8 M)) [%]	further results
Cc1nn(C)c(C)c1-c1cccc2c1CC[C@@H](N(C)C)C2 [Chemical Example J, (2R)-Dimethyl-[5-(1,3,5-trimethyl-1H-pyrazol-4-yl)-1,2,3,4-tetrahydro-naphthalen-2-yl]-amine hydrochloride]				inhibition at 1 µM [1, 6]: 59.6%; inhibition at 0.1 µM [1, 7]: 9.6%; inhibition at 0.01 µM [1, 8]: -1.8%
CCCN(CCC)CCc1cccc(-c2c(C)nn(C)c2C)c1 [Chemical Example 4, Dipropyl-{2-[3-(1,3,5-trimethyl-1H-pyrazol-4-yl)-phenyl]-ethyl}-amine]	90	98.7	48.6	
CCCN(CCC)C1CCc2cccc(O)c2C1 (stereo not shown) [8-OH-DPAT]				agonist classification on the 5-HT7 receptor (5HT7 receptor): agonist
COc1cccc(OC)c1-c1cccc(CCN(C)C)c1 [Chemical Example 13, [2-(2′,6′-Dimethoxy-biphenyl-3-yl)-ethyl]-dimethyl-amine]	105	60.5	54.4	
CN[C@H]1CCc2c(cccc2-c2c(C)nn(C)c2C)C1 [Chemical Example H, (2S)-Methyl-[5-(1,3,5-trimethyl-1H-pyrazol-4-yl)-1,2,3,4-tetrahydro-naphthalen-2-yl]-amine hydrochloride]				pIC50 [1]: 8.64; inhibition at 1 µM [1, 6]: 98.1%; inhibition at 0.1 µM [1, 7]: 97.8%; inhibition at 0.01 µM [1, 8]: 86.1%
CCN(CC)CCc1cccc(-c2c(C)cccc2C)c1 [Chemical Example 11, [2-(2′,6′-Dimethyl-biphenyl-3-yl)-ethyl]-diethyl-amine]	98.2	62.3	-13.7	
Cc1nn(C)c(C)c1-c1cccc2c1CC[C@H](N(C)Cc1ccccc1)C2 [Chemical Example F, (2S)-Benzyl-methyl-[5-(1,3,5-trimethyl-1H-pyrazol-4-yl)-1,2,3,4-tetrahydro-naphthalen-2-yl]-amine]				inhibition at 1 µM [1, 6]: 110%; inhibition at 0.1 µM [1, 7]: 44.7%; inhibition at 0.01 µM [1, 8]: 16.3%
CN(C)CCc1cccc(-c2cnn(C)c2)c1 [Chemical Example 17, Dimethyl-{2-[3-(1-methyl-1H-pyrazol-4-yl)-phenyl]-ethyl}-amine]	46	16.9	-1	
CCN(CC)CCc1cccc(-c2c(C)nn(C)c2C)c1 [Chemical Example 3, Diethyl-{2-[3-(1,3,5-trimethyl-1H-pyrazol-4-yl)-phenyl]-ethyl}-amine]	98.1	41.5	4.8	
CCCN(CCC)CCc1cccc(-c2c(C)cccc2C)c1 [Chemical Example 12, [2-(2′,6′-Dimethyl-biphenyl-3-yl)-ethyl]-dipropyl-amine]	93.3	92.2	43.8	
CCCN(CCC)CCc1cccc(-c2ccccc2OC)c1 [Chemical Example 24, [2-(2′-Methoxy-biphenyl-3-yl)-ethyl]-dipropyl-amine]	92.4	37.8	-1.8	
COc1ccccc1-c1cccc(CCN(C)C)c1 [Chemical Example 21, [2-(2′-Methoxy-biphenyl-3-yl)-ethyl]-dimethyl-amine]	95.4	69.2	20	
Cc1cccc(C)c1-c1cccc(CCN(C)C)c1 [Chemical Example 9, [2-(2′,6′-Dimethyl-biphenyl-3-yl)-ethyl]-dimethyl-amine]	105	88.9	65.9	
Cc1nn(C)c(C)c1-c1cccc2c1CCC(N(C)C)C2 (stereo not shown) [Chemical Example K, Dimethyl-[5-(1,3,5-trimethyl-1H-pyrazol-4-yl)-1,2,3,4-tetrahydro-naphthalen-2-yl]-amine]				pIC50 [1]: 8.41; inhibition at 0.1 µM [1, 7]: 91.3%; inhibition at 0.01 µM [1, 8]: 38.8%
Cc1cccc(S(=O)(=O)N(C)[C@H](C)CCN2CCC(C)CC2)c1.Cl [SB-258719, (R)-3,N-Dimethyl-N-(1-methyl-3-(4-methylpiperidin-1-yl)propyl)benzene sulfonamide hydrochloride]				change in the morphine effect, tail flick (Male CD1 mice [2]; SB-258719 10 mg/kg + varying doses of morphine s.c.): did not produce any significant change; effect on potenciation of morphine analgesia exerted by Chemical Example 1, tail flick (Male CD1 mice [2]; morphine 2 mg/kg + Chemical Example 1 10 mg/kg + SB-258719 10 mg/kg s.c. (FIG. 9C)): reverted
CN1CC[C@]23c4c5ccc(O)c4O[C@H]2[C@@H](O)C=C[C@H]3[C@H]1C5 [morphine]				analgesic effect, tail flick, Tolerant group (Male CD1 mice [3]): significantly reduced; analgesic effect, FPL, Tolerant group (Male CD1 mice [4]; FIG. 10A): reduced; analgesic effect, HPL, Tolerant group (Male CD1 mice [4]; FIG. 10B): reduced; analgesic effect, Jump, Tolerant group (Male CD1 mice [4]; FIG. 11): reduced; ED50 (Male CD1 mice [5]; read-out: ED50, Fore Paw Licking (FPL)): 24 mg/kg; ED50 (Male CD1 mice [5]; read-out: ED50, Hind Paw Licking (HPL)): 9.28 mg/kg; ED50 (Male CD1 mice [5]; read-out: ED50, Jumping): 3.19 mg/kg
Cc1nn(C)c(C)c1-c1cccc(CCN(C)C)c1 [Chemical Example 1]		98.6	60.8	effect on efficacy of a low dose of morphine, tail flick (Male CD1 mice [2]; 1.25, 2.5, 5 or 10 mg/kg s.c. + morphine 2 mg/kg (FIG. 9B)): increases in a dose-dependent manner; analgesic effect per se, tail flick (Male CD1 mice [2]; 1.25, 2.5, 5 or 10 mg/kg s.c. alone (FIG. 9B)): devoid of effect per se; inhibition at 0.1 µM (5-HT6): 5.4%
